Experiments:
Assay in all cases: Eurofins kinase selectivity profile against 380 other human recombinant kinases (Table S2)
Assay type in all cases: biochemical
[1] = molecular target: T1, 380 human recombinant protein kinases (Homo sapiens, UniProt Q14289); conditions: Pyk2(h), read-out: Inhibition rate
T1 construct: purchased Eurofins (Celle Lévescault)
Outline: (§1)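 To gauge specificity for MK2, the compound is profiled externally at various concentrations on recombinant human kinases, 380 in total.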

[2] = molecular target: T2, 380 human recombinant protein kinases (Homo sapiens, UniProt P25098); conditions: GRK2(h), read-out: Inhibition rate
T2 construct: purchased Eurofins (Celle Lévescault)
T2 sequence (P25098 1-689): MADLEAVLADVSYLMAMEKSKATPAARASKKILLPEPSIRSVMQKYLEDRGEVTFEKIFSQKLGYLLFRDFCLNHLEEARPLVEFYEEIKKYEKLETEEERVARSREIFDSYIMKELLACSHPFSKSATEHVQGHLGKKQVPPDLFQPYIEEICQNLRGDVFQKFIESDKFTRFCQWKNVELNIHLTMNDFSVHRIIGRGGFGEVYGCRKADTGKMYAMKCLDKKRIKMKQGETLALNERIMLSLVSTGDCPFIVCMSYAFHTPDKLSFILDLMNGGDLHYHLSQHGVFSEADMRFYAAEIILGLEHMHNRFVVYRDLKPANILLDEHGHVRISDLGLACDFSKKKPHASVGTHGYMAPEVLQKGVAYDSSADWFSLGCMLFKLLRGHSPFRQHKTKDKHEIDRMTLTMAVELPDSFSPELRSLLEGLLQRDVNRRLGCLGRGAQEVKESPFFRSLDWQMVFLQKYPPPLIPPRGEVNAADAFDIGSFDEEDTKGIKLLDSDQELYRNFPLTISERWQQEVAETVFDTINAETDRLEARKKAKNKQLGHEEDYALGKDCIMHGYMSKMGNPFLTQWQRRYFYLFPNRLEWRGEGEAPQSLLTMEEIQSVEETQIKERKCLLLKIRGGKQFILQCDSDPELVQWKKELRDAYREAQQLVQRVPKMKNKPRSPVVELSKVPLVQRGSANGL
Outline: as §1

[3] = molecular target: T3, 380 human recombinant protein kinases (Homo sapiens, UniProt P41240); conditions: CSK(h), read-out: Inhibition rate
T3 construct: purchased Eurofins (Celle Lévescault)
T3 sequence (P41240 whole entry): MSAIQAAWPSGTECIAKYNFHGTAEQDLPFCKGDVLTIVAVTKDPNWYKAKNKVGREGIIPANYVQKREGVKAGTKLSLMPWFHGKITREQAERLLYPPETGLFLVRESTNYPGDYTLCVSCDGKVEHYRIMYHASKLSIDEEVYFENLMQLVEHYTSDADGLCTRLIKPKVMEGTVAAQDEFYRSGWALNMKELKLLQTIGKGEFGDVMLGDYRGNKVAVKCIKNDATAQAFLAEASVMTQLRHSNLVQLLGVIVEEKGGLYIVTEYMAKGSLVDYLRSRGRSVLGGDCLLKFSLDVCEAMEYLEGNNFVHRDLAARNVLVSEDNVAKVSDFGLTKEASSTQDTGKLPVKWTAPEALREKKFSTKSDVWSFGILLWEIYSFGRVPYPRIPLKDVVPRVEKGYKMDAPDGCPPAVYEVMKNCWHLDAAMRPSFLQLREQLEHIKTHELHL
Outline: as §1

[4] = molecular target: T4, 380 human recombinant protein kinases (Homo sapiens, UniProt O60285); conditions: ARK5(h), read-out: Inhibition rate
T4 construct: purchased Eurofins (Celle Lévescault)
T4 sequence (O60285 1-661): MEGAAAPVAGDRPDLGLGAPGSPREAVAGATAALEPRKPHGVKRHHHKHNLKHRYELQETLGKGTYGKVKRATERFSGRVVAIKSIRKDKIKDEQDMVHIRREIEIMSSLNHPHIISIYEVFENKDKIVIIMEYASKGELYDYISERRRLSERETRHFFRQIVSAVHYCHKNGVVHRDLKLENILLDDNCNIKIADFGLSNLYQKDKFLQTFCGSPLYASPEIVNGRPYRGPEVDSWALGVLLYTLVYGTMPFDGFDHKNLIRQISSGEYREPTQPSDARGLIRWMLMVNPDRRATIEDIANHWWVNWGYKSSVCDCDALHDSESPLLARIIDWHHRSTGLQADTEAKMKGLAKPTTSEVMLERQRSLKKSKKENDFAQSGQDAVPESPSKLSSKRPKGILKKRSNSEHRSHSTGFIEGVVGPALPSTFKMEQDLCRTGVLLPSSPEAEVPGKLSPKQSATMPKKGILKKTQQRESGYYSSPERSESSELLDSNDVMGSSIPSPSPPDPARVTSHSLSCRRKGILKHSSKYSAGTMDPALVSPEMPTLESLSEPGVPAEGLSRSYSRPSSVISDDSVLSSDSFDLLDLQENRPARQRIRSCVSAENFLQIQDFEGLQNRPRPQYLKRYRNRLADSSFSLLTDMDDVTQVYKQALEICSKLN
Outline: as §1

[5] = molecular target: T5, 380 human recombinant protein kinases (Homo sapiens, UniProt P22607); conditions: FGFR3(h), read-out: Inhibition rate
T5 construct: purchased Eurofins (Celle Lévescault)
T5 sequence (P22607 23-806): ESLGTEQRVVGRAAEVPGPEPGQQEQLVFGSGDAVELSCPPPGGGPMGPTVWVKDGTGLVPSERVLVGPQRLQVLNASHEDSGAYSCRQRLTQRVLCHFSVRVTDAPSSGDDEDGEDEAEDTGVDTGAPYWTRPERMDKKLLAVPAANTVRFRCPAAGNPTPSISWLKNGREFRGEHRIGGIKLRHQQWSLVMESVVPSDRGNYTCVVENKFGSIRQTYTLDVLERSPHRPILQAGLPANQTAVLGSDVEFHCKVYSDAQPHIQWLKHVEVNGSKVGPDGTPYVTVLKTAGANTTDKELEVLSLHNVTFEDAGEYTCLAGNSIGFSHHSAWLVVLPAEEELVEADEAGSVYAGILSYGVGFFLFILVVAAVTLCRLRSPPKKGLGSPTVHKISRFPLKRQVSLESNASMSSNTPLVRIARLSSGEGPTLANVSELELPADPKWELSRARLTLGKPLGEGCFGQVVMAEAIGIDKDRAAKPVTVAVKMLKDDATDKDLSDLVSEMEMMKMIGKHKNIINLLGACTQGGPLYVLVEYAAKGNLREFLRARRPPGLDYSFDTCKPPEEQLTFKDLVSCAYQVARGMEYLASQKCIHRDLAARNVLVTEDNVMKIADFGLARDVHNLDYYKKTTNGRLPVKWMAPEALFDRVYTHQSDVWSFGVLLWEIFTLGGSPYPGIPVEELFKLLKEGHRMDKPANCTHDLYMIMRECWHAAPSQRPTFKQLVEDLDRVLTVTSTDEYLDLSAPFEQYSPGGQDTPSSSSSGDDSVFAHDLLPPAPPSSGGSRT
Outline: as §1

[6] = molecular target: T6, 380 human recombinant protein kinases (Homo sapiens, UniProt Q8IU85); conditions: CaMKIδ(h), read-out: Inhibition rate
T6 construct: purchased Eurofins (Celle Lévescault)
T6 sequence (Q8IU85 whole entry): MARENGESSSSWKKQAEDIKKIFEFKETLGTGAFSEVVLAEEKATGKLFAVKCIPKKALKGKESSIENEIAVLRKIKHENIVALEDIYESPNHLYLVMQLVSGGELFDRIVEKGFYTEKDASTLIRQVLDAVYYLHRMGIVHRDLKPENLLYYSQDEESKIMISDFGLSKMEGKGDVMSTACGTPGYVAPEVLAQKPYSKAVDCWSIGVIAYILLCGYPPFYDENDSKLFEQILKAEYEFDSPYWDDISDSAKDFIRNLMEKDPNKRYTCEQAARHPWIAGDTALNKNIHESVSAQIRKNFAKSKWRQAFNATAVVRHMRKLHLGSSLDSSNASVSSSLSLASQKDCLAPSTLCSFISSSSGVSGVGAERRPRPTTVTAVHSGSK
Outline: as §1

[7] = molecular target: T7, 380 human recombinant protein kinases (Homo sapiens, UniProt Q2M2I8); conditions: AAK1(h), read-out: Inhibition rate
T7 construct: purchased Eurofins (Celle Lévescault)
T7 sequence (Q2M2I8 whole entry): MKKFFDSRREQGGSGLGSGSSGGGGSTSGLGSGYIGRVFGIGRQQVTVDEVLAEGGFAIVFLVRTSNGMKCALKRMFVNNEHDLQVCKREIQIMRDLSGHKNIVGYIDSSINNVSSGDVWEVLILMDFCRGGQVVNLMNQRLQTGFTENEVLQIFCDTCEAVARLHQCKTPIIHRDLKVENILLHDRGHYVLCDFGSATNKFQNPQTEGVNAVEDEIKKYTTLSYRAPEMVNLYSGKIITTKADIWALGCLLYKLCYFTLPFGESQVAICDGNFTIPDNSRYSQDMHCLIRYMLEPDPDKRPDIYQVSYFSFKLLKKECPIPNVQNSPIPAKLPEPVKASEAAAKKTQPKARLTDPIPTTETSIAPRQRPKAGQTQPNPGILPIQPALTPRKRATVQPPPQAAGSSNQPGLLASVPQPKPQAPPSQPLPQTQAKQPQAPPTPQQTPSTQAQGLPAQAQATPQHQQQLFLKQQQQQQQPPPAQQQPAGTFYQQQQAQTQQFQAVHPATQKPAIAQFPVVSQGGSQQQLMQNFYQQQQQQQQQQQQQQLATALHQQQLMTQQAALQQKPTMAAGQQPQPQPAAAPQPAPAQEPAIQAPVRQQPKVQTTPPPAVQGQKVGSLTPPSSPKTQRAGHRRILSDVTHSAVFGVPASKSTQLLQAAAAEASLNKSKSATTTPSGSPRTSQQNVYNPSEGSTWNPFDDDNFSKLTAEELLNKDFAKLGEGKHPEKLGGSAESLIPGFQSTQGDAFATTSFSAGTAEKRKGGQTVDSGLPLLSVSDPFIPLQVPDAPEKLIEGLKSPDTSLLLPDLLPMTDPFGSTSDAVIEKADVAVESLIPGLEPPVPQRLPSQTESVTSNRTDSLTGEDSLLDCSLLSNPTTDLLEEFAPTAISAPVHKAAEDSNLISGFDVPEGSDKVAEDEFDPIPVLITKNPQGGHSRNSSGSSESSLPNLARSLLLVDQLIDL
Outline: as §1

[8] = molecular target: T8, 380 human recombinant protein kinases (Homo sapiens, UniProt Q13882); conditions: BRK(h), read-out: Inhibition rate
T8 construct: purchased Eurofins (Celle Lévescault)
Outline: as §1

[9] = molecular target: T9, 380 human recombinant protein kinases (Homo sapiens, UniProt Q9HBH9); conditions: Mnk2(h), read-out: Inhibition rate
T9 construct: purchased Eurofins (Celle Lévescault)
T9 sequence (Q9HBH9 whole entry): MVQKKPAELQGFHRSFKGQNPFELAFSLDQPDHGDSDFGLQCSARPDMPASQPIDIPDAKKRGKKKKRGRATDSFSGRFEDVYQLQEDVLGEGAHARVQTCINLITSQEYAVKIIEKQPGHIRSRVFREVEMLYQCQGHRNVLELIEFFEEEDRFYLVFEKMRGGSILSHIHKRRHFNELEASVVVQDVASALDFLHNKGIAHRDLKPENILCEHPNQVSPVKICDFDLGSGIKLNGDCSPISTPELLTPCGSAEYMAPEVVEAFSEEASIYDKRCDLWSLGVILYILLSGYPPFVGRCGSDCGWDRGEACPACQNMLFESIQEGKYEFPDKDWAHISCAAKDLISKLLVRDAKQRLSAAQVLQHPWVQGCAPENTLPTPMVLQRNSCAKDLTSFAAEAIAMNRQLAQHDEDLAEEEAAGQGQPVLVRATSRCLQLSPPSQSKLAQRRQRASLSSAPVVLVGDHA
Outline: as §1

[10] = molecular target: T10, 380 human recombinant protein kinases (Homo sapiens, UniProt Q00532); conditions: CDKL1(h), read-out: Inhibition rate
T10 construct: purchased Eurofins (Celle Lévescault)
T10 sequence (Q00532 whole entry): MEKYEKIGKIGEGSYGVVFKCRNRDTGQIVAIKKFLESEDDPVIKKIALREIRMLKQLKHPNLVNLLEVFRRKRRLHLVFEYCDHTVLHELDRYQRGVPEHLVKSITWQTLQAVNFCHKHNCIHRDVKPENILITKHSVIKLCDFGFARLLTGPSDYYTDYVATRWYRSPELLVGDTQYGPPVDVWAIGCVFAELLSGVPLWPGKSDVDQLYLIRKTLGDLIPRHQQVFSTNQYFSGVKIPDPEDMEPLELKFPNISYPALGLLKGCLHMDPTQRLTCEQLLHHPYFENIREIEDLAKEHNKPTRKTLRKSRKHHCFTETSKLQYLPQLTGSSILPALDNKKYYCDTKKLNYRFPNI
Outline: as §1

[11] = molecular target: T11, 380 human recombinant protein kinases (Homo sapiens, UniProt P06241); conditions: Fyn(h), read-out: Inhibition rate
T11 construct: purchased Eurofins (Celle Lévescault)
T11 sequence (P06241 whole entry): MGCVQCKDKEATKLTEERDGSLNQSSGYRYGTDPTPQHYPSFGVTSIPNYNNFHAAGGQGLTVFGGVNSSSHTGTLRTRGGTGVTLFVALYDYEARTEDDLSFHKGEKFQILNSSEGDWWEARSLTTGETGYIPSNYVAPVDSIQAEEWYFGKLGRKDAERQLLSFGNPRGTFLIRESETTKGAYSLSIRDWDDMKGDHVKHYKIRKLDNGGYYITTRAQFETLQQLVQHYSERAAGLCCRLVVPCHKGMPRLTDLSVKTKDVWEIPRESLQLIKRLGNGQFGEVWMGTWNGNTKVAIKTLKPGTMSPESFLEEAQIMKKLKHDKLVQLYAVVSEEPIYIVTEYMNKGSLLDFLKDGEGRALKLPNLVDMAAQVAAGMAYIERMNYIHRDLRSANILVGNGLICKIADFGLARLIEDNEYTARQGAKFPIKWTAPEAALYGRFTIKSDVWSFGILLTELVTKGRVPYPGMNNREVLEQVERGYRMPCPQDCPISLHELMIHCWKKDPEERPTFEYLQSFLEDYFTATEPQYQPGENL
Outline: as §1

T1 sequence (Q14289 whole entry): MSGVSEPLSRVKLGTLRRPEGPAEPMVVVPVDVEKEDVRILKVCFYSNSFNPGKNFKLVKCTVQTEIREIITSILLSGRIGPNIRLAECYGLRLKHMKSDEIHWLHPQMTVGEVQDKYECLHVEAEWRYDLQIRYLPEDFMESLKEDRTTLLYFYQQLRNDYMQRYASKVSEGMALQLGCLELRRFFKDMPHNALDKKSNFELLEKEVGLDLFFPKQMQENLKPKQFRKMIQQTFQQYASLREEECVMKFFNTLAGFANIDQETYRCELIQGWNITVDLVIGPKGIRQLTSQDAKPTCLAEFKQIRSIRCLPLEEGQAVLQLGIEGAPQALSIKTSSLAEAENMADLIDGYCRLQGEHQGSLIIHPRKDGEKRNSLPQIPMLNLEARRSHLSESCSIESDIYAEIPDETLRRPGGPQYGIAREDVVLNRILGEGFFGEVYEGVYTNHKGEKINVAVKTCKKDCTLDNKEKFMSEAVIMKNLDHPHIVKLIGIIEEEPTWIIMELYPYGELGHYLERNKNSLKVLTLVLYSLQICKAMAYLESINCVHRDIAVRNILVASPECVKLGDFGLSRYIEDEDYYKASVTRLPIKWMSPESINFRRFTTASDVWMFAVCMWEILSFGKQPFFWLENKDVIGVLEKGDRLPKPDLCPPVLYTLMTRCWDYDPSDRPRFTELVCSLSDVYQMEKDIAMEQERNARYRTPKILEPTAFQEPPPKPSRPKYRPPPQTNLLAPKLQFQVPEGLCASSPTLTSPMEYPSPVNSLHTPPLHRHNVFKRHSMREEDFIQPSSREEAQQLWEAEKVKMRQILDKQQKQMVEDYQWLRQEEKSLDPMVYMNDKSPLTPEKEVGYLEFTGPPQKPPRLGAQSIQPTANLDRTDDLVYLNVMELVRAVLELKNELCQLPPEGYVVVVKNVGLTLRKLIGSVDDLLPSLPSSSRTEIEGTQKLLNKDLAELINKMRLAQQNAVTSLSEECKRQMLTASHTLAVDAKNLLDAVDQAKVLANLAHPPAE

For `C=CC(=O)Nc1cc(-c2cc(-c3cc4c([nH]3)CCNC4=O)ccn2)ccc1OC(F)(F)F` [compound 11], the inhibition at 0.01 µM ([1]; 10 nM) was -11%, the inhibition at 0.1 µM ([1]; 100 nM) was -5% and the inhibition at 1 µM ([1]; 1000 nM) was 6%. The inhibition at 0.01 µM ([2]; 10 nM) was -6%, the inhibition at 0.1 µM ([2]; 100 nM) was -9% and the inhibition at 1 µM ([2]; 1000 nM) was -2%. It also gave an inhibition at 0.01 µM ([3]; 10 nM) of -2%, an inhibition at 0.1 µM ([3]; 100 nM) of -1% and an inhibition at 1 µM ([3]; 1000 nM) of -13%. For the same molecule, the inhibition at 0.01 µM ([4]; 10 nM) was -2%, the inhibition at 0.1 µM ([4]; 100 nM) was 14% and the inhibition at 1 µM ([4]; 1000 nM) was 28%. The inhibition at 0.01 µM ([5]; 10 nM) was 2%, the inhibition at 0.1 µM ([5]; 100 nM) was 9% and the inhibition at 1 µM ([5]; 1000 nM) was 0%. The inhibition at 0.01 µM ([6]; 10 nM) was -3%, the inhibition at 0.1 µM ([6]; 100 nM) was -6% and the inhibition at 1 µM ([6]; 1000 nM) was 1%. The inhibition at 0.01 µM ([7]; 10 nM) was -1%, the inhibition at 0.1 µM ([7]; 100 nM) was 11% and the inhibition at 1 µM ([7]; 1000 nM) was 39%. It also gave an inhibition at 0.01 µM ([8]; 10 nM) of 0%, an inhibition at 0.1 µM ([8]; 100 nM) of -5% and an inhibition at 1 µM ([8]; 1000 nM) of -7%. The inhibition at 0.01 µM ([9]; 10 nM) was 4%, the inhibition at 0.1 µM ([9]; 100 nM) was 13% and the inhibition at 1 µM ([9]; 1000 nM) was 61%. It also gave an inhibition at 0.01 µM ([10]; 10 nM) of 26%, an inhibition at 0.1 µM ([10]; 100 nM) of 47% and an inhibition at 1 µM ([10]; 1000 nM) of 49%. For the same molecule, the inhibition at 0.01 µM ([11]; 10 nM) was 0%, the inhibition at 0.1 µM ([11]; 100 nM) was 0% and the inhibition at 1 µM ([11]; 1000 nM) was 3%.

— PMC11233931, “Remodeling tumor‐associated macrophage for anti‐cancer effects by rational design of irreversible inhibition of mitogen‐activated protein kinase‐activated protein kinase 2” (MedComm, 2024)
